# Data reported in US6197568A (priority 1998, dated 2001).
# Assays:
# [1] = molecular target: T1, Recombinant dengue 2 virus envelope protein (Dengue virus type 2, UniProt P27914); experiment: Envelope protein binding assay with competitive antagonists, Vero cells, flow cytometry; assay type: cell-based
# T1 construct: extending from the start codon to the beginning of the transmembrane region (nucleotides 1 to 1272); CD5 signal peptide (N); made in house; host or cells: COS-7 cells (transfected; purified from cell lysate on protein A)
# Method: Panels A-D: Competitive antagonists. Recombinant dengue 2 virus envelope protein was co-incubated with Vero cells in the presence of potential competitive antagonists, and the degree of binding was quantitated by flow cytometry. Abscissa: Competitive antagonist. Binding of envelope protein without antagonist is indicated by dengue Env column. Background binding (cells incubated with normal human IgG instead of envelope protein) is indicated by Control IgG column. Ordinate: Median fluorescence intensity derived from flow cytometry histograms for each sample.
# Vero cells were detached from their culture surface without proteases (incubated in cation-free phosphate buffered saline (PBS, Gibco-BRL) with 5 mM EDTA, 10 min. 37° C., washed, and incubated with envelope protein (10 μg/ml) and competitive antagonists (10 μg/ml unless otherwise indicated) in cation containing PBS with 1% normal goat serum (Gibco-BRL), for 1 hour at 4° C. Cells were washed two times, incubated with R-phycoerythrin labeled Fab2 fragment of affinity purified goat antibody to human IgG Fc (5 μg/ml, Jackson Labs.) for 1 hour at 4° C., and washed two times. Cellular fluorescence and forward angle light scatter were quantitated by flow cytometry (FACScan, Becton Dickinson). A minimum of 10,000 cells was assessed from each treatment group. Data were accumulated only for viable cells; non-viable cells were excluded from analysis on the basis of low forward angle light scatter. Results were expressed as frequency histograms of fluorescence per cell. A value for median fluorescence intensity was derived from the fluorescence frequency histograms for each sample, and used to compare fluorescence between samples. In each experiment, controls consisted of untreated cells, cells incubated with only the secondary fluorochrome-labeled antibody, and cells incubated with normal human IgG followed by the secondary fluorochrome-labeled antibody.
# Chondroitin sulfate (CS) from bovine trachea, dermatan sulfate (DS) from bovine mucosa, heparan sulfate (HS) from bovine kidney, heparin from bovine lung, keratan sulfate (KS) from bovine cornea, and dextran sulfate (DexS) (MW 5×105) were obtained from Sigma Chemical Co. and used at a concentration of 10 μg/ml.
# [2] = system: dengue 2 New Guinea C strain virus; experiment: Infectivity assay, dengue virus infection of Vero cells (cytopathic effect); assay type: cell-based, dengue 2 virus
# [3] = system: Human umbilical vein endothelial cells
compound,measurement,setting,value
Cc1ccc(C(=O)Nc2ccc(S(=O)(=O)O)c3cc(S(=O)(=O)O)cc(S(=O)(=O)O)c23)cc1NC(=O)c1cccc(NC(=O)Nc2cccc(C(=O)Nc3cc(C(=O)Nc4ccc(S(=O)(=O)O)c5cc(S(=O)(=O)O)cc(S(=O)(=O)O)c45)ccc3C)c2)c1 [Suramin],inhibition of envelope protein binding by polyanionic compounds,[1],inhibited envelope protein binding
same,effect on infectious titer,"[2]; Vero cells incubated with compound, washed before exposure to virus",no effect on infectious titer
same,prevention of dengue virus infection of Vero cells,"[2]; high doses (0-2.5 mg/ml), compound incubated with virus",completely protective at high doses
[Na+].[O-][Cl+2]([O-])[O-] [sodium chlorate],envelope protein binding after sulfation inhibition,Vero cells,complete loss of binding
same,envelope protein binding after sulfation inhibition,[3],dose dependent partial inhibition of binding
dextran sulfate [DexS],inhibition of envelope protein binding to Vero cells (competitive antagonist),[1]; antagonist 10 μg/ml,no effect
same,inhibition of envelope protein binding to Vero cells (competitive antagonist),[1]; concentrations up to 30 μg/ml,no inhibitory effect
sulfated lactobionic acid,inhibition of envelope protein binding by polyanionic compounds,[1],inhibited envelope protein binding
